Results as given in the AptaBench aptamer set (doi:10.1093/nar/gkaf219).

Tests used:
Settings in all cases: 10 mM Tris-HCl, pH 7.4
[1] = system: DNA aptamer or structured DNA CTTACGACAAAGGCTCGGGCTCCCATGATGGATTCGTTGTCGTAAG
[2] = system: DNA aptamer or structured DNA CTTACGACAAGGGATGTCTGTTAGTGTGTCGGTGCATTGTCGTAAG
[3] = system: DNA aptamer or structured DNA CTTACGACACAGGGGGTGGCTAGGGTGCGCGGGAGCTGGTCGTAAG
[4] = system: DNA aptamer or structured DNA CTTACGACAGGCGGTGTGGTGCTGGGAATAGGGATGGTGTCGTAAG
[5] = system: DNA aptamer or structured DNA CTTACGACATGGGATGTGTAGTTAGTGGTCGGATCCGAGTCGTAAG
[6] = system: DNA aptamer or structured DNA CTTACGACCTGCTCTGAGGGTCAACGGTGGTGTAGTCGGTCGTAAG
[7] = system: DNA aptamer or structured DNA CTTACGACCTGTTCTGAGGGTCAACCTTTGGTGTAGTGGTCGTAAG
[8] = system: DNA aptamer or structured DNA CTTACGACCTGTTCTGAGGGTCAACGGTGGTGTAGTCGGTCGTAAG
[9] = system: DNA aptamer or structured DNA CTTACGACGGGTGCCGTTGGTTCTAGGGGTAGGATGGCGTCGTAAG
[10] = system: DNA aptamer or structured DNA CTTACGACGGGTGCTGTTGGTTCTAGGGTTAGGATGGCGTCGTAAG
[11] = system: DNA aptamer or structured DNA CTTACGACGGTCTTTTGGGTGTTCTGGGTGGGAGGAGCGTCGTAAG
[12] = system: DNA aptamer or structured DNA CTTACGACGGTGGTGTGGTACTGGGCTTGGGGGGTGTTGTCGTAAG
[13] = system: DNA aptamer or structured DNA CTTACGACGTGGGAAGTGTGGTTTGTGATCGGATCCGTGTCGTAAG
[14] = system: DNA aptamer or structured DNA CTTACGACGTGTGCTGTTGGTTCTAGGGGTAGGATGGCGTCGTAAG
[15] = system: DNA aptamer or structured DNA CTTACGACGTGTGCTGTTGGTTCTAGGGTTAGGATGGCGTCGTAAG
[16] = system: DNA aptamer or structured DNA CTTACGACTAGGCGGGGGTCGGCCACCGAGGTGGGGTAGTCGTAAG
[17] = system: DNA aptamer or structured DNA CTTACGACTAGGTGTGGGTCGGCTCCGGATGGAGGGTAGTCGTAAG
[18] = system: DNA aptamer or structured DNA CTTACGACTAGGTGTGGGTCGGCTGCTTTCGCAGGGTAGTCGTAAG
[19] = system: DNA aptamer or structured DNA CTTACGACTAGTCGGTGGGGGGTAGGCGGAGGGTTGTTGTCGTAAG
[20] = system: DNA aptamer or structured DNA CTTACGACTCAGGGGGAGGCTAGGGTGCGCGGAAGCTGGTCGTAAG
[21] = system: DNA aptamer or structured DNA CTTACGACTGGGATGTGTTGTTAGTGCTGTCGGATCCGGTCGTAAG
[22] = system: DNA aptamer or structured DNA CTTACGACTTGTTCTGAGGGTCAACGGTGGTGTAGTTAGTCGTAAG
[23] = system: DNA aptamer or structured DNA CTTACGACTTTGGTTTCCTCGATTCGCATGGGTGGTAAGTCGTAAG
[24] = system: DNA aptamer or structured DNA GGGACGACCTAGGGCTTGGGTTTAGGTGTGGGGTGTTGGGTCGTCCC
[25] = system: DNA aptamer or structured DNA GGGACGACGGAGGTGTAGGGTTTAGGTAGTGGGTTGAAGTCGTCCC
[26] = system: DNA aptamer or structured DNA GGGACGACGGGGCTCTTACCCTGGAGGGTAGAAGGGGAGGTGTGGTCAGTCGTCCC
[27] = system: DNA aptamer or structured DNA TTCAAATCTGAGCAGCCTAGTTACTGACGGGTTTATAGTACTCACATTGAGTCTAGATTTGAA
[28] = system: DNA aptamer or structured DNA TTCAAATCTGAGCAGCCTAGTTACTGACGGGTTTATAGTACTCGCATCGAGTCTAGATTTGAA
[29] = system: DNA aptamer or structured DNA TTCAAATCTTATGTACGTTCTATCGCATGGATGGGATTTTGGGTTACCTAGTCTAGATTTGAA
[30] = system: DNA aptamer or structured DNA TTCAAATCTTGGTACGTTCTGCCTTTTCTTATTTTGCTTTGGGTTACCTAGTCTAGATTTGAA
[31] = system: DNA aptamer or structured DNA CTTACGACACAGGGTGTGTTGTGCTCAGTGGTGTATGTGTCGTAAG
[32] = system: DNA aptamer or structured DNA GGGACGACGGCAGGGTGTTGGTGGGGTAGGTCAATGTAGTCGTCCC
[33] = system: DNA aptamer or structured DNA GGGACGACGGTTGGCTTGGGTCGGGTGTGGGTGCGGCGTCGTCCC
[34] = system: DNA aptamer or structured DNA GGGACGACTGCTTGGGTAGGTCGGGTTTGGGTTCGGCGGTCGTCCC
Wherever binding call is given: call rule not given here.

NCCc1c[nH]c2ccc(O)cc12
no binding: binding call [1] | binding call [2] | binding call [4] | binding call [5] | binding call [6] | binding call [7] | binding call [8] | binding call [11] | binding call [12] | binding call [13] | binding call [16] | binding call [17] | binding call [18] | binding call [19] | binding call [20] | binding call [21] | binding call [22] | binding call [23] | binding call [24] | binding call [25] | binding call [27] | binding call [28] | binding call [29] | binding call [30]
binds: binding call [3] | binding call [9] | binding call [10] | binding call [14] | binding call [15] | binding call [26]

COC(=O)[C@@H]1C2CCC(C[C@@H]1OC(=O)c1ccccc1)N2C (stereo partly drawn)
189 nM: Kd [6]
168 nM: Kd [13]
1350 nM: Kd [9]
285 nM: Kd [1]
266 nM: Kd [4]
76 nM: Kd [3]
330 nM: Kd [2]
335 nM: Kd [12]
350 nM: Kd [18]
57 nM: Kd [10]
239 nM: Kd [23]
98 nM: Kd [15]
216 nM: Kd [7]
22 nM: Kd [22]
binds: binding call [24] | binding call [25] | binding call [26] | binding call [34]
510 nM: Kd [17]
53 nM: Kd [8]
315 nM: Kd [16]
204 nM: Kd [21]
no binding: binding call [31] | binding call [32] | binding call [33] | binding call [27] | binding call [30]
122 nM: Kd [19]
245 nM: Kd [20]
235 nM: Kd [14]

NCCc1ccc(O)c(O)c1
no binding: binding call [1] | binding call [2] | binding call [6] | binding call [7] | binding call [8] | binding call [11] | binding call [12] | binding call [16] | binding call [17] | binding call [18] | binding call [20] | binding call [21] | binding call [22] | binding call [23] | binding call [26] | binding call [27] | binding call [30]
binds: binding call [3] | binding call [4] | binding call [5] | binding call [9] | binding call [10] | binding call [13] | binding call [14] | binding call [15] | binding call [19] | binding call [28] | binding call [29]
